The subject of one assay is rat.
Assay: not given
The settings on record: cited from earlier work.
Consider `S=C(NC1CCCCC1)N1CCC(c2cnc[nH]2)CC1` [thioperamide], for which the reversal learning result was “improve short-term memory and reversal learning”; the short-term memory result was “improve short-term memory”.

For a further assay, the system named is histamine-H3 receptor.
Assay: not given
The settings on record: cited from earlier work.
In the case of `N=C(N)SCCCc1c[nH]cn1` [S-[3-(4(5)-imidazolyl)propyl]isothiourea], the H3 agonist/antagonist activity entry is reported as “histamine-H3 antagonist”.

The next assay deals with mice.
Assay: not given
To be noted: electrically induced convulsions; cited from earlier work.
`S=C(NC1CCCCC1)N1CCC(c2cnc[nH]2)CC1` [thioperamide]: the “duration of each phase of convulsion” value was “decreased the duration of each phase of convulsion” and the electroconvulsive threshold result is reported as “raised the electroconvulsive threshold”.

The target of a further assay is T1, H3 receptors (Cavia porcellus, UniProt Q9JI35). As to the kind of experiment: pA2 at H3 receptor (guinea pig neuronal ileum contraction assay). Type of assay: biochemical.
T1 sequence (Q9JI35 whole entry): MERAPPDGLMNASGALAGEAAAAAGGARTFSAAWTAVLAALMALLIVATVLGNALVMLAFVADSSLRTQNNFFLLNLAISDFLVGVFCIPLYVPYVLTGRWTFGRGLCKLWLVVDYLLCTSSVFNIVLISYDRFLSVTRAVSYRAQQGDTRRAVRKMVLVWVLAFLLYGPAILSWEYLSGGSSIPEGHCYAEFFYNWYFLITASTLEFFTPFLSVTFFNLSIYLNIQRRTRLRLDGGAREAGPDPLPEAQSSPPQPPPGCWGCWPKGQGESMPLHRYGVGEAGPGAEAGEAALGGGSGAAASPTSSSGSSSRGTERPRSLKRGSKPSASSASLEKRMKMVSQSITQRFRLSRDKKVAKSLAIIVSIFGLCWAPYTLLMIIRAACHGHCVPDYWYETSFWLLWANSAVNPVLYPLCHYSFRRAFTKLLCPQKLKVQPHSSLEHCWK
Details: not given
The text has this: pA2=-logEC50, as defined by J. Hey, Eur. J. Pharmacol., (1995), Vol. 294, 329.
`OC1(c2ccc(Cl)cc2)CCN(CCCc2c[nH]cn2)CC1` [compound 25] showed a Kb of 12.6 nM. On the same count and under the same terms, under `OC1(c2ccc(Cl)cc2)CCN(CCCCCc2c[nH]cn2)CC1` [compound 27] stands 7.94 nM.

Compound `OC1(c2ccc(Cl)cc2)CCN(CCCCc2c[nH]cn2)CC1` [compound 26] gave a Kb of 10 nM.

`Fc1ccc(C2=CCN(CCCCc3c[nH]cn3)CC2)cc1` [compound 31] had a Kb of 12.6 nM.

The same assay, now with this note: HCl salt; pA2=-logEC50 as defined by J. Hey.
A word on the pA2: it is a measure of antagonist potency on a negative log scale. For the compound `OCCN1CCC(CCCC2CCN(CCCc3c[nH]cn3)CC2)CC1` [compound 29], the pA2 is listed as 7.1. `OCCN1CCC(CCCC2CCN(CCCCc3c[nH]cn3)CC2)CC1` [compound 30]: the pA2 is listed as 7.7.

Staying with this assay, now noted: HCl salt; pA2=-logEC50 as defined by J. Hey; read-out: pA2 (converted).
In the case of `O=C(Nc1ccc(Cl)c(Cl)c1)C1CCN(CCCCc2c[nH]cn2)CC1` [No. 8], the Kb is 158 nM. On the same count and under the same terms, under `CCCN(CC1CCN(CCCCc2c[nH]cn2)CC1)S(=O)(=O)c1ccc(OC(F)(F)F)cc1` [compound 6] stands 316 nM. The same measure, in the same setting: under `CC1(C(=O)Nc2ccc(OC(F)(F)F)cc2)CCN(CCCCc2c[nH]cn2)CC1` [No. 19] stands 39.8 nM. Still for that read-out and setting: then `c1nc(CCCCN2CCC(N3CCCCC3)CC2)c[nH]1` [compound 24], with 631 nM; and `O=C(Nc1cccc(OC(F)(F)F)c1)C1CCN(CCCc2c[nH]cn2)CC1` [compound 11], with 0.631 nM; and `O=C(NCc1ccc(Cl)cc1)C1CCN(CCCc2c[nH]cn2)CC1` [No. 12], with 10 nM. As to `Fc1ccc(OCC2CCN(CCCCc3c[nH]cn3)CC2)cc1` [compound 34], the Kb is 20 nM.

For the compound `O=C(c1ccc(F)cc1)C1CCN(CCCCc2c[nH]cn2)CC1` [compound 33], the Kb was 6.31 nM. With `O=C(Nc1ccc(OC(F)(F)F)cc1)C1CCN(CCCCc2c[nH]cn2)CC1` [No. 2], the Kb is 0.501 nM.

For the compound `CCCCOc1ccc(NC(=O)C2CCN(CCCc3c[nH]cn3)CC2)cc1` [compound 14], the Kb was 1 nM.

`O=C(Nc1cccc(Cl)c1)C1CCN(CCCCc2c[nH]cn2)CC1` [compound 9]: the Kb was 1.26 nM. For `O=C(c1ccc(F)cc1)C1CCN(CCCc2c[nH]cn2)CC1` [compound 32], the Kb was 20 nM. Still for that read-out and setting: then `O=C(Nc1cccc(C(F)(F)F)c1)C1CCN(CCCCc2c[nH]cn2)CC1` [No. 10], with 0.794 nM. In the case of `O=C(NCc1ccc(OC(F)(F)F)cc1)C1CCN(CCCc2c[nH]cn2)CC1` [compound 13], the Kb is 31.6 nM. Still for that read-out and setting: under `FC(F)(F)Oc1ccc(CNC2CCN(CCCCc3c[nH]cn3)CC2)cc1` [compound 21] stands 7.94 nM.

The target in another assay is T1, H3 receptors. As to the kind of experiment: H3-Receptor Binding Assay (guinea pig brain membranes, [3H]R-α-methylhistamine or [3H]Nα-methylhistamine).
Details: not given
The term Ki denotes a dissociation constant, usually derived from enzyme kinetics or from competition with a known ligand. Regarding `O=C(Nc1ccc(Cl)c(Cl)c1)C1CCN(CCCCc2c[nH]cn2)CC1` [No. 8], the Ki was 27 nM. `OC1(c2cccc(C(F)(F)F)c2)CCN(CCCCc2c[nH]cn2)CC1` [compound 28] showed a Ki of 60 nM. For `CCC(=O)C1(c2ccccc2)CCN(CCCc2c[nH]cn2)CC1` [compound 35], the affinity, expressed as Ki, was 500 nM. Same read-out and setting: under `O=C(Nc1ccc(Cl)cc1)C1CCN(CCCCc2c[nH]cn2)CC1` [No. 7] stands 35 nM; under `OC1(Cc2ccccc2)CCN(CCCc2c[nH]cn2)CC1` [compound 36], 660 nM. Still for that read-out and setting: then `CCCN(CC1CCN(CCCCc2c[nH]cn2)CC1)S(=O)(=O)c1ccc(OC(F)(F)F)cc1` [compound 6], with 24 nM. The same measure, in the same setting: under `FC(F)(F)Oc1ccc(NCC2CCN(CCCCc3c[nH]cn3)CC2)cc1` [compound 22] stands 9 nM; under `CC1(C(=O)Nc2ccc(OC(F)(F)F)cc2)CCN(CCCCc2c[nH]cn2)CC1` [No. 19], 180 nM; under `OC1(c2ccc(Cl)cc2)CCN(CCCc2c[nH]cn2)CC1` [compound 25], 6 nM.

`c1nc(CCCCN2CCC(N3CCCCC3)CC2)c[nH]1` [compound 24] came in with an inhibitory constant (Ki) of 100 nM. Still for that read-out and setting: under `CCCNC(=O)C1CCN(CCCCc2c[nH]cn2)CC1` [compound 3] stands 53 nM. `OC1(c2ccc(Cl)cc2)CCN(CCCCCc2c[nH]cn2)CC1` [compound 27] registered an inhibition constant Ki of 5 nM.

Compound `O=C(Nc1cccc(OC(F)(F)F)c1)C1CCN(CCCc2c[nH]cn2)CC1` [compound 11] had a Ki of 1 nM. On the same count and under the same terms, under `O=C(NCc1ccc(Cl)cc1)C1CCN(CCCc2c[nH]cn2)CC1` [No. 12] stands 29 nM; under `Fc1ccc(OCC2CCN(CCCCc3c[nH]cn3)CC2)cc1` [compound 34], 10 nM. With `O=C(c1ccc(F)cc1)C1CCN(CCCCc2c[nH]cn2)CC1` [compound 33], the Ki turned out to be 3 nM.

`CC1(C(=O)Nc2ccc(OC(F)(F)F)cc2)CCCN(CCCCc2c[nH]cn2)C1` (stereo not shown) [No. 20]: the Ki turned out to be 170 nM. `OC1(c2ccc(Cl)cc2)CCN(CCCCc2c[nH]cn2)CC1` [compound 26] had a Ki of 6 nM. `O=C(Nc1ccc(OC(F)(F)F)cc1)C1CCN(CCCCc2c[nH]cn2)CC1` [No. 2]: the Ki came to 2 nM. Same read-out and setting: then `Fc1ccc(C2=CCN(CCCCc3c[nH]cn3)CC2)cc1` [compound 31], with 14 nM; and `CCCCOc1ccc(NC(=O)C2CCN(CCCc3c[nH]cn3)CC2)cc1` [compound 14], with 10 nM; and `O=C(Nc1cccc(O)c1)C1CCN(CCCc2c[nH]cn2)CC1` [compound 16], with 700 nM.

For `CCCN(CC1CCN(CCCCc2c[nH]cn2)CC1)S(=O)(=O)c1ccc(Cl)cc1` [compound 5], the affinity corresponds to a Ki of 44 nM.

Compound `O=C(Nc1cccc(Cl)c1)C1CCN(CCCCc2c[nH]cn2)CC1` [compound 9] showed a Ki of 5.5 nM.

In turn, `O=C(NC1CCN(CCCc2c[nH]cn2)CC1)c1ccc(F)cc1` [No. 18] showed a Ki of 52 nM.

Consider `O=C(c1ccc(F)cc1)C1CCN(CCCc2c[nH]cn2)CC1` [compound 32], for which affinity was put at a Ki of 6 nM. Same read-out and setting: under `O=C(Nc1ccc(O)cc1)C1CCN(CCCc2c[nH]cn2)CC1` [compound 15] stands 100 nM. `CCOC(=O)C1CCN(CCCCc2c[nH]cn2)CC1` [compound 1]: the Ki came to 22 nM. Compound `O=C(Nc1cccc(C(F)(F)F)c1)C1CCN(CCCCc2c[nH]cn2)CC1` [No. 10] yielded an inhibition constant (Ki) of 9 nM. Same read-out and setting: under `O=C(NCc1ccc(OC(F)(F)F)cc1)C1CCN(CCCc2c[nH]cn2)CC1` [compound 13] stands 24 nM. On the same count and under the same terms, then `O=C(NC1CCN(CCCc2c[nH]cn2)CC1)c1ccc(OC(F)(F)F)cc1` [No. 17], with 23 nM; and `CCCNCC1CCN(CCCCc2c[nH]cn2)CC1` [No. 4], with 200 nM. Consider `FC(F)(F)Oc1ccc(CNC2CCN(CCCCc3c[nH]cn3)CC2)cc1` [compound 21], for which the affinity, expressed as Ki, was 13 nM.

Still in this assay, the particulars now being: HCl salt; guinea pig brain membranes, pH 7.5, 30° C., 30 min.
In the case of `OCCN1CCC(CCCC2CCN(CCCc3c[nH]cn3)CC2)CC1` [compound 29], the Ki stood at 12 nM. The same measure, in the same setting: under `OCCN1CCC(CCCC2CCN(CCCCc3c[nH]cn3)CC2)CC1` [compound 30] stands 7 nM.

The values above are taken from patent publication US6133291A, “N-(imidazolylalkyl)substituted cyclic amines as histamine-H3 agonists or antagonists” (Schering Corporation, priority 1998, dated 2000).
